# Assay results reported in patent publication US7320867B2, “Linker compound, ligand, and producing method thereof” (Japan Science and Technology Agency, priority 2000, dated 2008).
# pKd: −log10 of the molar value.
# Legend:
# [1] = biological target: recombinant von Willebrand's Factor (rvWF) (Homo sapiens, UniProt P04275); experiment: SPR measurement of binding between ligand-introduced chip and rvWF; conditions: for pKd: read-out: Dissociation constant KD
# Source text: That is, by the procedure described below, a ligand (Compound 14) was immobilized on a surface of a glass substrate with a thin gold film deposited thereon, and the binding behavior of Compound 14 with a recombinant von Willebrand's Factor (hereinafter abbreviated to rvWF), which is a heparin binding protein, was observed.
# First, a sensor chip (manufactured by Japan Laser Electronics Co., Ltd.), prepared by depositing a gold film of 50 nm thick on a glass substrate of 13 mm×20 mm×0.7 mm, was placed in a UV ozone washer (product name: NL-UV253, Japan Laser Electronics Co., Ltd.), and was exposed to ultraviolet rays for 20 minutes so as to wash the gold surface of the sensor chip with ozone. Subsequently, the sensor chip was mounted on a Teflon™ cell holder in a cell. The cell, to which 50 μL of a methanol solution containing 0.1 mM of Compound 14 was added, was sealed and then gently shaken overnight at room temperature with a Bio Dancer (product name, New Brunswick Scientific Co., Ltd.). Thereafter, the cell was washed six times with 100 μL of methanol, and the sensor chip was removed from the Teflon™ cell holder. The removed sensor chip was then immersed in a Petri dish full of methanol and washed twice by gently shaking the Petri dish. Thereafter, the sensor chip was washed with water and methanol in this order in the same manner as described above, so as to obtain a ligand-introduced chip (ligand carrier). The ligand carrier was air-dried and then mounted on a sensor chip cartridge (glass prism) of a surface plasmon resonance apparatus SPR670 (product name, Japan Laser Electronics Co., Ltd.).
# Except that an rvWF solution was used instead of the BSA solution (5-2) injected onto the ligand-introduced chip (obtained in 5-1), the same procedure as in (5-2) was carried out to inject the rvWF solution onto the surface of the ligand-introduced chip. It is to be noted that rvWF was dissolved in the running buffer so as to prepare an rvWF solution with a concentration of 125 nM to 1600 nM.
# The rvWF solution was injected onto the surface of the ligand-introduced chip at varying concentrations, and a response (RU; response unit) based on bonding between Compound 14 and rvWF was measured as a function of injection time (sec) of the rvWF solution using the surface plasmon resonance apparatus. […]
# In addition, a dissociation constant (KD), a binding rate constant (ka), and a dissociation rate constant (kd) were calculated, using software attached to the surface plasmon resonance apparatus (SPR670), based on a result (FIG. 1) yielded by observing the binding behavior of Compound 14 (ligand) with rvWF.
# Then, except that the Compound 25 was used instead of the Compound 14, the procedure in (5-1) of Example 5 was followed to obtain a ligand-introduced chip. […] Thereafter, according the procedure in (5-3) of Example 5, the rvWF solution was injected onto the surface of the ligand-introduced chip, and changes in resonance angle as a function of injection time of the rvWF solution was measured using the surface plasmon resonance apparatus, so as to examine the binding behavior of Compound 25 with rvWF.
# In addition, a dissociation constant (KD), a binding rate constant (ka), and a dissociation rate constant (kd) were calculated, based on FIG. 2, according to the procedure in (5-3) of Example 5.
# [2] = biological target: bovine serum albumin (BSA) (Bos taurus, UniProt P02769); experiment: SPR examination of nonspecific (hydrophobic) interaction between ligand-introduced chip and protein; format: binding; conditions: BSA 1 mg/mL in PBS pH 7.4, 60 μL at 15 μL/min, 25° C.
# Sequence of bovine serum albumin (BSA) (P02769 25-607): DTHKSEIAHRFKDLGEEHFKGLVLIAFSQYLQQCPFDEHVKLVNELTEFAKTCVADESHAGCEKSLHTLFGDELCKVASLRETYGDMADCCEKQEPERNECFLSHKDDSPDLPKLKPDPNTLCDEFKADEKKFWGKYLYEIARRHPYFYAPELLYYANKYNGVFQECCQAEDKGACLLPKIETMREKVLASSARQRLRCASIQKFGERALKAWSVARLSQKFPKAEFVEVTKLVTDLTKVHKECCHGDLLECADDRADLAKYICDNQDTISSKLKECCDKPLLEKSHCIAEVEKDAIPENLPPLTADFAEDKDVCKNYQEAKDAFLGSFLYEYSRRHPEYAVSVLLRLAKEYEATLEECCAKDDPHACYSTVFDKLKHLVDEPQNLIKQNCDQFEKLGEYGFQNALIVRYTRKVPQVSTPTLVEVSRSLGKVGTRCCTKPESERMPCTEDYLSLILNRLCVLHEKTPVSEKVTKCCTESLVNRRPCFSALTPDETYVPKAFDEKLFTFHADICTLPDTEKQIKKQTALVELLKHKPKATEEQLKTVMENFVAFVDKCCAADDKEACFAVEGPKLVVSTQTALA
# [3] = ligand immobilized on gold sensor chip, rvWF 125 nM to 1600 nM in PBS pH 7.4, 25° C., calculated with SPR670 software
# Sequence of recombinant von Willebrand's Factor (rvWF) (P04275 23-2813): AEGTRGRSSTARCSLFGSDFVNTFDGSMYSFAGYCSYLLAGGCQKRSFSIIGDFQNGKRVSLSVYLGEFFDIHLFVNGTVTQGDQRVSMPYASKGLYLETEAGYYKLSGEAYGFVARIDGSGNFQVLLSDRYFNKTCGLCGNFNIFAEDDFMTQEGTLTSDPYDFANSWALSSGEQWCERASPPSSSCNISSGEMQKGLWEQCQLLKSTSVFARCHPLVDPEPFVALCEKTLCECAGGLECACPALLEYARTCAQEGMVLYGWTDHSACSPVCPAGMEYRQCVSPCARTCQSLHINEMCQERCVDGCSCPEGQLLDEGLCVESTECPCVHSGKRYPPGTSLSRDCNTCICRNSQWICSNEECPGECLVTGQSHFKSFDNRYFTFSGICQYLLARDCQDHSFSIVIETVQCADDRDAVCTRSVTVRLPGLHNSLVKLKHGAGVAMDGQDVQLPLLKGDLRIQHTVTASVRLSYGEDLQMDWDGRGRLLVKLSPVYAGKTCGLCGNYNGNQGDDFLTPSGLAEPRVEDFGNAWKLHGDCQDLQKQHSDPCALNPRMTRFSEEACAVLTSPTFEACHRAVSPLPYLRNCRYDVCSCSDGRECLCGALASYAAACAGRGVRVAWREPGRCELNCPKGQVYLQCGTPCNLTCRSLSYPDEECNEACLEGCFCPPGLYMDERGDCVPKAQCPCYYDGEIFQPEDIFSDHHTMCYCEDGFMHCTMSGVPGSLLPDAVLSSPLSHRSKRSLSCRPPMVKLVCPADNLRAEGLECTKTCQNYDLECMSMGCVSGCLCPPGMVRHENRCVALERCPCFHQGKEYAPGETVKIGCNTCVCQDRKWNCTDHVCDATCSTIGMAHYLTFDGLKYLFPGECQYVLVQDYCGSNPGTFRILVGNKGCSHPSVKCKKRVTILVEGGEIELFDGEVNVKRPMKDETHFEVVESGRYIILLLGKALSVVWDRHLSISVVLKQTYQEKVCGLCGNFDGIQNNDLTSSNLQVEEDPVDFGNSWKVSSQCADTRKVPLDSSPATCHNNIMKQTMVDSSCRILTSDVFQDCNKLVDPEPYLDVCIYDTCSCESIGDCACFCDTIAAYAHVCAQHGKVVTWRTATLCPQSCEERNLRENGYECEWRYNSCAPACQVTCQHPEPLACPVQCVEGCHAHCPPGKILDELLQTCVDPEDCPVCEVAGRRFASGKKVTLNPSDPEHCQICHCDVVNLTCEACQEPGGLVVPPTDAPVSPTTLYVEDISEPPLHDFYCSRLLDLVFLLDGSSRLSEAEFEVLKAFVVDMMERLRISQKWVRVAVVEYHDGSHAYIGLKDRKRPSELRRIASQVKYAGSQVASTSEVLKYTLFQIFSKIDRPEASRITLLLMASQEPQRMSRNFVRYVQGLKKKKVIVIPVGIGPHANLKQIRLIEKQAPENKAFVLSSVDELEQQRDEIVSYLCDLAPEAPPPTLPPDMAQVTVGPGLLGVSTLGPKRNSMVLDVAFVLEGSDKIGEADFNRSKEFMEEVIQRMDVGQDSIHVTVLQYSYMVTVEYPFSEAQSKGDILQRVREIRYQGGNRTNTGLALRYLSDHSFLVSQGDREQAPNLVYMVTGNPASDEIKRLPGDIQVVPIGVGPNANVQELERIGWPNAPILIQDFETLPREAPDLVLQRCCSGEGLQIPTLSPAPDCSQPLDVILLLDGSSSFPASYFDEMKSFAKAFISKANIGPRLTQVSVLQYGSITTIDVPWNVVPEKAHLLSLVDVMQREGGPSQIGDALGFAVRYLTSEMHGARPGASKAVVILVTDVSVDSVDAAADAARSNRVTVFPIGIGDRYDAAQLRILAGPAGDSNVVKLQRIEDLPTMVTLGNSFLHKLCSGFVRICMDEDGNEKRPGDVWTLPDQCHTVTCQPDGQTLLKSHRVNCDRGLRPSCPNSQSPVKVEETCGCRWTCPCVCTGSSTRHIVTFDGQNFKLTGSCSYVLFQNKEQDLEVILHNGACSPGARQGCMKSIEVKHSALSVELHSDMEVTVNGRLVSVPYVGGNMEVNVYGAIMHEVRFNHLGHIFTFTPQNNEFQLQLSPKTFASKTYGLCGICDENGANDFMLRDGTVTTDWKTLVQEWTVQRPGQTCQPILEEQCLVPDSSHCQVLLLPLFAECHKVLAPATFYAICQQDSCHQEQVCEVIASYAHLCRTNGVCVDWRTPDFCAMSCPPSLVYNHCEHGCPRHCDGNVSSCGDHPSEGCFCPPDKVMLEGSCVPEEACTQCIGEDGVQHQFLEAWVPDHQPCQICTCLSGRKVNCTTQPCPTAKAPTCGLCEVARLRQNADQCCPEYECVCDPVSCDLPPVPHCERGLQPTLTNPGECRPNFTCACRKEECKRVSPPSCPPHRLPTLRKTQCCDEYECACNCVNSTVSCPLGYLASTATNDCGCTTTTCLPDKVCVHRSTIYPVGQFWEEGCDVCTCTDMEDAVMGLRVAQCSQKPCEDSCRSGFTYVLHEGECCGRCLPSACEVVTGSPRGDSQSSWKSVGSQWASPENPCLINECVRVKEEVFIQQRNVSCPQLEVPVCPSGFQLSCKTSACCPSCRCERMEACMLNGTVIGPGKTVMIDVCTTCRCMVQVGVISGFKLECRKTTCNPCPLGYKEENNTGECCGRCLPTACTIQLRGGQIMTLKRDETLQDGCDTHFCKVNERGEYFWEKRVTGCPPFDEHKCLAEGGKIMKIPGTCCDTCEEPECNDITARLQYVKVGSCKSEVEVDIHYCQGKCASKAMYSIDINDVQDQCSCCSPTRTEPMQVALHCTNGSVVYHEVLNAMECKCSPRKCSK
Affinity for rvWF compared with ligand-introduced chip using Compound 25 ([1]; comparison from Table 1),"pKd [1, 3]",Nonspecific interaction based on hydrophobic interaction (resonant angle change) [2],"kon ([1]; ligand immobilized on gold sensor chip, rvWF 125 nM to 1600 nM in PBS pH 7.4, 25° C., calculated with SPR670 software, read-out: Binding rate constant ka)","koff ([1]; ligand immobilized on gold sensor chip, rvWF 125 nM to 1600 nM in PBS pH 7.4, 25° C., calculated with SPR670 software, read-out: Dissociation rate constant kd)",Compound
higher affinity for rvWF,5.92,almost no resonant angle change,,,COC1C(COS(=O)(=O)O)OC(OC2C(C(=O)O)OC(OCC(O)C(O)C(O)C(O)CNc3cccc(NC(=O)CCC(CCC(=O)Nc4cccc(NCC(O)C(O)C(O)C(O)COC5OC(C(=O)O)C(OC6OC(COS(=O)(=O)O)C(OC)C(O)C6NS(=O)(=O)O)C(O)C5OS(=O)(=O)O)c4)(CCC(=O)Nc4cccc(NCC(O)C(O)C(O)C(O)COC5OC(C(=O)O)C(OC6OC(COS(=O)(=O)O)C(OC)C(O)C6NS(=O)(=O)O)C(O)C5OS(=O)(=O)O)c4)NC(=O)CNC(=O)CCCCC4CCSS4)c3)C(OS(=O)(=O)O)C2O)C(NS(=O)(=O)O)C1O (stereo not shown) [Compound 14]
,5.59,no nonspecific interaction,8380 M⁻¹ s⁻¹,0.0219 s⁻¹,COC1C(COS(=O)(=O)O)OC(OC2C(C(=O)O)OC(OCC(O)C(O)C(O)C(O)CNc3cccc(NC(=O)CCCCC4CCSS4)c3)C(OS(=O)(=O)O)C2O)C(NS(=O)(=O)O)C1O (stereo not shown) [Compound 25]
